# Assay results published in the SangsterLogP compilation.
# Test: method code SF-AS, from DOI: 10.1021/jm00305a054, PMID: 5812219
row,SMILES,logP
1,O=CNC(=O)C1CCC1,-0.7
2,CCCCCCCC(=O)NC(=O)C1CCC1,0.85
3,CCCCCC(=O)NC(=O)C1CCC1,0.89
4,CCCCCCCCCCCC(=O)NC(=O)C1CCC1,1.28
5,CC(C)(C)C(=O)NC(=O)C1CCC1,0.53
6,CCCCC(=O)NC(=O)C1CCC1,0.75

# Second part, the compound after the results:
row,logP,SMILES
1,0.41,CCCC(=O)NC(=O)C1CCC1
2,-0.4,CC(=O)NC(=O)C1CCC1
3,0.48,CC(C)CC(=O)NC(=O)C1CCC1
4,0.26,CC(C)C(=O)NC(=O)C1CCC1
